# Where two headings read alike, the source gives them in different places.
# Assays:
# [1] = target: T1, KAT2A (Homo sapiens, UniProt Q92830); assay: KAT2A degradation, Western Blot (Jess), NCI-H1048 cells; assay type: cell-based; parameters: degrader, Western blot (Jess)
# Outline: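 DC50 came from protein loss relative to DMSO, measured by Jess capillary immunoblot of RIPA lysates with chemiluminescence read-out. Before lysis, NCI-H1048 cells in 5% FBS HITES medium were exposed to compound for 24 h at 37° C.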
# [2] = system: LASCPC-01 cells; assay: Cell viability (Cell Titer Glo, 7 days), LASCPC-01 cells; assay type: cell-based; conditions: 168 h, Cell Titer Glo relative to DMSO control after 7 days, FIG. 3 (B)
# Procedure: FIG. 3. Provided compounds can provide various activities. (A): Provided technologies can reduce KAT2A and KAT2B levels and histone acetylation levels. […] Cell viability (Cell Titer Glo) data relative to DMSO control after 7 days of treatment with compound 22 are presented as examples to confirm inhibition. GI50=5 nM. (C): Provided technologies can modulate cell states and induce differentiation. […] (D): Provided technologies can reduce KAT2A and KAT2B levels and histone acetylation levels including in neuroendocrine prostate cancer primary patient organoid. […] Concentrations are nM. […] Cell viability data relative to DMSO control after 21 days of treatment with compound 22 are presented as examples to confirm inhibition. GI50=3 nM. (F): Provided technologies can modulate cell states and induce differentiation.
# [3] = target: KAT2B (Homo sapiens, UniProt Q92831); assay: Western blot of KAT2B in NCI-H1048 tumors, 168 hours post last dose; assay type: in vivo; parameters: degrader, Western blot; conditions: FIG. 1 (F)
# Procedure: FIG. 1. Provided compounds can provide various activities including inhibiting tumor growth in vivo. (A): Provided compounds can inhibit tumor growth in vivo. Nude Balb/c mice were inoculated with NCI-H1048 cells in Matrigel. Tumors were allowed to grow up to about 200 mm^3 and mice were then randomized into two groups. Mice were dosed intraperitoneally (i.p.) once per week with vehicle or 30 mg/kg compound 22. Tumor size was measured every three to four days and mice were sacrificed once vehicle tumors reached 2000 mm^3. Error bar is SEM. Dosing started at day 17 post tumor inoculation. (B): Provided technologies can reduce KAT2A and KAT2B levels and histone acetylation levels. […] Vehicle is DMSO. […] Cell count data relative to DMSO control after 8 days of treatment with compound 22 are presented as examples to confirm inhibition. GI50=6 nM. (D): Provided technologies can inhibit tumor growth in vivo. Nude balb/c mice inoculated with H1048 tumors were dosed intraperitoneally once per week (qw i.p.) with vehicle (HbCD) or compound 22. Average tumor volumes+/−SEM from 6 mice are represented. […] See also (A). […] Certain body weights relative to starting weight are presented as examples to confirm tolerability and safety. (F): Provided technologies can reduce KAT2A and KAT2B levels and histone acetylation levels in tumor in vivo. […]
# [4] = target: T1, KAT2A; assay: Western blot of KAT2A level in acute myeloid leukemia MOLM-13 cells, 48 h; assay type: cell-based; parameters: degrader, Western blot; conditions: FIG. 2 (A)
# Procedure: FIG. 2. Provided compounds can provide various activities. (A): Provided technologies can reduce KAT2A and KAT2B levels and histone acetylation levels. […] Cell count data after 8 days of treatment with compound 22 relative to DMSO control are presented as examples to confirm inhibition. […] (C): Provided technologies can modulate cell states and induce differentiation. […] EC50=0.3 nM.
# [5] = system: MOLM-13 cells; assay: Cell growth inhibition, AML cell line MOLM-13 (CyQuant, day 7); assay type: cell-based; conditions: for GI50: Homo sapiens
# T1 sequence (Q92830 whole entry): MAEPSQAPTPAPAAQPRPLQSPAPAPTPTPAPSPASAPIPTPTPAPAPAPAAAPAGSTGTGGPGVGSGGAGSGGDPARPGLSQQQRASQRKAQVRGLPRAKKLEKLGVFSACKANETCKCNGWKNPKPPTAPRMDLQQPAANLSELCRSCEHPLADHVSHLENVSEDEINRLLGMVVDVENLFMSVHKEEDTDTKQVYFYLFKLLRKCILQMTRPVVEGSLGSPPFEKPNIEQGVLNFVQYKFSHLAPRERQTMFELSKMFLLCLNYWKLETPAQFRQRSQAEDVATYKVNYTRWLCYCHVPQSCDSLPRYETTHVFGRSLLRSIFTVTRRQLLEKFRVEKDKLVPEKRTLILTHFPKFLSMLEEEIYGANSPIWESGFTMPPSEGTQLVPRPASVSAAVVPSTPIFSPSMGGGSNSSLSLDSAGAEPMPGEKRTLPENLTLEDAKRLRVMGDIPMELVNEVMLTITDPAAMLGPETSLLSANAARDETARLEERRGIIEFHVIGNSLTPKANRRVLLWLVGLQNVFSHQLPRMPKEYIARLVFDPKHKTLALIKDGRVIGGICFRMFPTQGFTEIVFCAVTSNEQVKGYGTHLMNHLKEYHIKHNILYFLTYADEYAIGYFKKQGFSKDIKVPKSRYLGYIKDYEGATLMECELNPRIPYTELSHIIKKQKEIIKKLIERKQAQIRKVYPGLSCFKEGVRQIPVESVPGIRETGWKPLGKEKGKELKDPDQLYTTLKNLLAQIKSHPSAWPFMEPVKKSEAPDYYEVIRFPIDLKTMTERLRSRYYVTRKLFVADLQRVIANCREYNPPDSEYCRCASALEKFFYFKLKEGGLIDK
# KAT2B, sequence (Q92831 whole entry): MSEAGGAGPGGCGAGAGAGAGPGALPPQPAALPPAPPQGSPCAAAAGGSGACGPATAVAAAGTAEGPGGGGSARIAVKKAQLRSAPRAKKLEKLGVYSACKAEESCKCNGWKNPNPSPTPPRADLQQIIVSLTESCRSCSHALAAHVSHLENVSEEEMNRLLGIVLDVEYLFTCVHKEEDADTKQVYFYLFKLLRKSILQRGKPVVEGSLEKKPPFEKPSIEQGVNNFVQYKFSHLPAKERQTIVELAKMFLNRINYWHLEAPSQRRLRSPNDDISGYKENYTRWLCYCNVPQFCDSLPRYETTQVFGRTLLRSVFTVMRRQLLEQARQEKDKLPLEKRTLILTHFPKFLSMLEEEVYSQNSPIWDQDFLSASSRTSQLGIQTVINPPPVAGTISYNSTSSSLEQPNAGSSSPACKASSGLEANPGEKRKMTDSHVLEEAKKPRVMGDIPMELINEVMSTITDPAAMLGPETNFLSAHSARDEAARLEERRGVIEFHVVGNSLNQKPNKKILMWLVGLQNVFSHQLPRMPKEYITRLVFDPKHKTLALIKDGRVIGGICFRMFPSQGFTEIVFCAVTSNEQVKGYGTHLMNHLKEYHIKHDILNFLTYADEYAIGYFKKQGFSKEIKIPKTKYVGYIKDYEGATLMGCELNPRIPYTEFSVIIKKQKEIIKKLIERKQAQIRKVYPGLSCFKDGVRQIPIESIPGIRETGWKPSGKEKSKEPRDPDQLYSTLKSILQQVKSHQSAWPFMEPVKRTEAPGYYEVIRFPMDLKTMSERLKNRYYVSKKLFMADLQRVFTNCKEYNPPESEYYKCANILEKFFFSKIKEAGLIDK
structure (smiles),measurement,setting,value
"CN1C[C@H](Nc2cnn(C)c(=O)c2Br)C[C@H](c2ccc(C(=O)N3CCC(CN4CCN(c5ccc6c(c5)CN(C5CCC(=O)NC5=O)C6=O)CC4)CC3)cc2)C1 (stereo partly drawn) [Compound 22, 3-(5-(4-((1-(4-((3R,5R)-5-((5-bromo-1-methyl-6-oxo-1,6-dihydropyridazin-4-yl)amino)-1-methylpiperidin-3-yl)benzoyl)piperidin-4-yl)methyl)piperazin-1-yl)-1-oxoisoindolin-2-yl)piperidine-2,6-dione]",EC90,"[1]; 24 h, NCI-H1048, KAT2A, read-out: DC90 (the source's name)",0.29 nM
same,DC50,"[1]; NCI-H1048, KAT2A, read-out: DC50",0.01 nM
same,KAT2A levels,"[1]; NCI-H1048 cells, FIG. 1",potently reduce KAT2A and KAT2B levels
same,DC50,"[1]; NCI-H1048 cells, KAT2A, 24 h, Western Blot, vs DMSO, read-out: KAT2A NCI-H1048 DC50",< 1 nM
same,GI50,[2],5 nM
same,reduction of KAT2B in tumor,[3],significant reduction
same,reduction of KAT2A level,[4],confirm such reduction
same,GI50,"[5]; 168 h, MOLM-13, day 7, CyQuant, read-out: MOLM13 GI50",2.9 nM
same,GI50,"[5]; MOLM-13, comparison table with Ref-1, read-out: Growth GI50",1.2 nM
same,cell growth,"[5]; MOLM-13 cells, FIG. 2",inhibit cell growth
